The record followed here is PubChem BioAssay (NCI).

Molecules are shown by their SMILES.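 Exposure lasted 48 hours, with cells grown in 96-well plates and compounds tested at five concentrations. TGI marks complete inhibition of growth.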

Some test systems named below: MOLT-4 leukemia; UACC-62 melanoma; OVCAR-8 ovarian; SNB-75 CNS; A498 renal; SK-OV-3 ovarian; NCI-H23 lung; HCC-2998 colon; EKVX NSCLC; HOP-92 NSCLC; MDA-MB-435; IGROV1 ovarian; CAKI-1 renal; TK-10 renal; OVCAR-5 ovarian; BT-549 breast; M14 melanoma; SF-539 CNS; SK-MEL-28 melanoma.
Common to all, as to test: inhibition of tumour cell growth, NCI panel, 48 h

Consider `Cc1cc(-c2nc3ccc(F)cc3s2)ccc1NC(=O)C(N)CCCCN` (configuration not stated), for which the TGI came out at 7.94 µM in the experiment with MOLT-4 leukemia; 24.6 µM in the experiment with UACC-62 melanoma; 22.3 µM in the experiment on OVCAR-8 ovarian; 12.6 µM with SNB-75 CNS; 24 µM in the experiment with A498 renal; 27.1 µM in the experiment on SK-OV-3 ovarian. In addition, the TGI in the experiment with NCI-H23 lung amounted to 18.5 µM; in the experiment on HCC-2998 colon, 21.4 µM; in the experiment with EKVX NSCLC, 26.5 µM; in the experiment with HOP-92 NSCLC it was 27.7 µM; with MDA-MB-435, 5.34 µM; in the experiment on IGROV1 ovarian, 17.6 µM. Moreover, the TGI in the experiment on CAKI-1 renal came out at 24.9 µM; in the experiment with TK-10 renal it was 14.5 µM; with OVCAR-5 ovarian, 22.5 µM; in the experiment with BT-549 breast, 28.3 µM; in the experiment on M14 melanoma it was 6.57 µM; with SF-539 CNS, 7.75 µM. The TGI in the experiment on SK-MEL-28 melanoma is 34.8 µM.

On to `CC1(C)C(CBr)=[N+]([O-])C(C)(C)N1O`, for which the TGI is more than 7.43 µM in the experiment on MOLT-4 leukemia; more than 10 µM with UACC-62 melanoma; more than 10 µM in the experiment with OVCAR-8 ovarian; more than 10 µM in the experiment with SNB-75 CNS; more than 10 µM in the experiment on A498 renal; more than 10 µM with SK-OV-3 ovarian. Further, the TGI in the experiment with NCI-H23 lung was more than 10 µM; in the experiment with HCC-2998 colon, more than 10 µM; in the experiment on EKVX NSCLC, more than 8.02 µM; with HOP-92 NSCLC it was 5.5 µM; in the experiment with MDA-MB-435 it was more than 8.08 µM; in the experiment on IGROV1 ovarian, more than 10 µM. The TGI with CAKI-1 renal was 5.87 µM; in the experiment with TK-10 renal, more than 10 µM; in the experiment with OVCAR-5 ovarian it was more than 10 µM; with BT-549 breast it was 5.43 µM; in the experiment on M14 melanoma, 5.65 µM; in the experiment with SF-539 CNS, more than 7.83 µM. In the experiment with SK-MEL-28 melanoma, the TGI was more than 10 µM.

For the molecule `CCN(CC)CCOCCOCC1(c2ccc(Cl)c(Cl)c2)CCCCC1`, the TGI in the experiment on MOLT-4 leukemia worked out at 13.2 µM; in the experiment on UACC-62 melanoma, 22.1 µM; in the experiment on OVCAR-8 ovarian, 28.8 µM; in the experiment with SNB-75 CNS, 20.4 µM; with A498 renal, 27.6 µM; in the experiment with SK-OV-3 ovarian it was 24.5 µM. For the same molecule, the TGI with NCI-H23 lung worked out at 24.5 µM; with HCC-2998 colon, 14.8 µM; in the experiment with EKVX NSCLC, 23 µM; in the experiment on HOP-92 NSCLC it was 17.7 µM; with MDA-MB-435, 13.6 µM; in the experiment on IGROV1 ovarian, 23.8 µM. In addition, the TGI in the experiment with CAKI-1 renal turned out to be 22.9 µM; in the experiment on TK-10 renal, 21.7 µM; in the experiment on OVCAR-5 ovarian it was 24 µM; in the experiment on BT-549 breast, 26 µM; in the experiment with M14 melanoma, 3.29 µM; in the experiment on SF-539 CNS, 24.8 µM. In addition, the TGI with SK-MEL-28 melanoma amounted to 12.3 µM.

Consider `C[C@H](CCC(=O)O)[C@H]1CC[C@H]2[C@@H]3[C@H](O)[C@H](O)[C@@H]4C[C@H](O)CC[C@]4(C)[C@H]3CC[C@]12C`, for which the TGI in the experiment with MOLT-4 leukemia, in the experiment with UACC-62 melanoma, in the experiment with OVCAR-8 ovarian, with SNB-75 CNS, in the experiment on A498 renal and with NCI-H23 lung was more than 100 µM throughout. Moreover, the TGI in the experiment on HCC-2998 colon, in the experiment with EKVX NSCLC, in the experiment on HOP-92 NSCLC, in the experiment with MDA-MB-435, in the experiment with IGROV1 ovarian and with CAKI-1 renal was more than 100 µM each time. Further, the TGI with TK-10 renal, in the experiment with OVCAR-5 ovarian, in the experiment on BT-549 breast, with M14 melanoma, in the experiment with SF-539 CNS and in the experiment with SK-MEL-28 melanoma was more than 100 µM each time.

On to `COP(=O)(/C=C/C(NC(=O)C(Cl)(Cl)Cl)c1ccccc1)OC` (configuration not stated), for which the TGI in the experiment on MOLT-4 leukemia, in the experiment with UACC-62 melanoma, in the experiment on OVCAR-8 ovarian, in the experiment on SNB-75 CNS, in the experiment on A498 renal and in the experiment with SK-OV-3 ovarian was more than 100 µM in each case. Moreover, the TGI in the experiment with NCI-H23 lung, with HCC-2998 colon, in the experiment with EKVX NSCLC, in the experiment with HOP-92 NSCLC, in the experiment on MDA-MB-435 and in the experiment with IGROV1 ovarian was more than 100 µM in each case. For the same molecule, the TGI in the experiment on CAKI-1 renal, in the experiment with TK-10 renal, with OVCAR-5 ovarian, in the experiment on BT-549 breast, in the experiment on M14 melanoma and in the experiment with SK-MEL-28 melanoma was more than 100 µM in each case.

Turning to `Cc1cc(OP2(=O)NCc3ccncc3O2)ccc1Cl` (configuration not stated), the TGI with MOLT-4 leukemia, with UACC-62 melanoma, in the experiment on OVCAR-8 ovarian, in the experiment with SNB-75 CNS, in the experiment with A498 renal and in the experiment on NCI-H23 lung was more than 100 µM in each case. In addition, the TGI in the experiment with HCC-2998 colon, in the experiment with EKVX NSCLC, in the experiment with HOP-92 NSCLC, with MDA-MB-435, in the experiment with IGROV1 ovarian and with CAKI-1 renal was more than 100 µM throughout. Also, the TGI in the experiment on OVCAR-5 ovarian, in the experiment on BT-549 breast, in the experiment with M14 melanoma, in the experiment with SF-539 CNS and in the experiment on SK-MEL-28 melanoma was more than 100 µM in each case.

`O=C1C=CC(=O)c2c(O)c(NCCN3CCOCC3)c(Cl)c(O)c21`: the TGI in the experiment on MOLT-4 leukemia was 3.89 µM; in the experiment on UACC-62 melanoma it was 3.03 µM; with OVCAR-8 ovarian it was more than 10 µM; with SNB-75 CNS, 3.27 µM; in the experiment on A498 renal, more than 10 µM; in the experiment with SK-OV-3 ovarian, more than 10 µM. Further, the TGI was 3.35 µM with HCC-2998 colon; more than 10 µM in the experiment on EKVX NSCLC; 6.39 µM with HOP-92 NSCLC; 4.12 µM with MDA-MB-435; 3.72 µM in the experiment with IGROV1 ovarian; 3.25 µM in the experiment on CAKI-1 renal. The TGI in the experiment with TK-10 renal is more than 10 µM; in the experiment on BT-549 breast it was 3.98 µM; with M14 melanoma it was 3.64 µM; in the experiment on SF-539 CNS, 3.33 µM; in the experiment on SK-MEL-28 melanoma it was 2.98 µM.
